Data on 1 compound can be found in patent US20210063414A1, “METHODS FOR PREVENTING AND/OR TREATING BONE LOSS CONDITIONS BY MODULATING IRISIN” (Dana-Farber Cancer Institute, Inc., priority 2018, published 2021).

In one experiment the target is T1, integrin αV/β5 (Homo sapiens, UniProt P06756+P18084).
T1 construct: expressed in transfected cells; host or cells: HEK293T
As to the kind of experiment: FAK phosphorylation in HEK293T cells with forced expression of integrin αV/β5. The format is cell-based. The procedure:
100 nM irisin was incubated with 5 nM indicated his-tag integrins followed by immunoprecipitation using Ni-NTA agaroses. Precipitated integrins and co-precipitated irisin were analyzed by immunoblot analysis. […] HEK293T cells were seeded and incubated until 50% cell density. The cells were transfected with 0.1 μg plasmids of indicated integrins. After 48 hours, the cells were incubated with Freestyle293 medium for 3 hours and were treated with indicated concentration of irisin for 5 minutes. Cells were lysed to detect the indicated protein level using immunoblot analysis. […] MLO-Y4 cells were treated as described in FIG. 2D with addition of pretreatment of indicated antagonistic antibodies for 10 minutes. Cells were lysed to detect the indicated protein level using immunoblot analysis. […] MLO-Y4 cells were treated as described in FIG. 1B except with addition of the pretreatment of indicated antagonistic antibodies for 10 minutes. Sclerostin mRNA level was analyzed by qRT-PCR. Cyclophilin was used for house-keeping gene. […] The ribbon diagram is colored by HDX stabilization/destabilization. Percentages of deuterium differences are color-coded according to the smooth color gradient key at the bottom. Crystal structure of irisin dimer is from Protein Data Bank (PDB) (4 lsd) and a homology model of integrin β5 was built based on integrin β3 structure from PDB (4MMX).
100 nM irisin was incubated with 5 nM indicated his-tag integrins followed by immunoprecipitation using Ni-NTA agaroses. Precipitated integrins and co-precipitated irisin were analyzed by immunoblot analysis. […] HEK293T cells were seeded and incubated until 50% cell density. The cells were transfected with 0.1 μg plasmids of indicated integrins. After 48 hours, the cells were re-split to indicated dose of vitronectin-coated plates. Cells were incubated with culture medium for 3 hours. Cells were lysed to detect the indicated protein level using immunoblot analysis. FIG. 15C and FIG. 15D show the immunoblot data. Cells were treated and analyzed as FIG. 14B except using plasmids encoding integrin α5/β1 or integrin α11/β1 (FIG. 15C) integrin αV/β1(FIG. 15D).
MLO-Y4 cells were treated and analyzed as described in FIG. 5A with addition of pretreatment of control RGD peptide, cyclo RGDyK (cRGDyK), or SB273005. […] HEK293 cells were treated and analyzed as described in FIG. 14B except the treatment of different dose of cyclo RGDyK. […] 8 weeks old male mice were treated and analyzed as described in FIG. 5D except the additional group with co-injection of 1 mg/kg SB273005. […]
Cells were harvested in RIPA buffer containing protease-inhibitor cocktail and phosphataseinhibitor cocktail. […] Protein levels were analyzed via western blot using indicated antibody. […]

Experiment [1] deals with primary inguinal fat cells. As to the kind of experiment: Ucp1 mRNA in primary inguinal fat cells. The format is cell-based, mice. Conditions: 10 μM peptide. As for the experimental part:
FIG. 18A-FIG. 18B show mRNA and protein levels of indicated genes. 1 mg/kg irisin was injected to 8-week old mice every other day for 6 days. mRNA levels of indicated genes in inguinal fat were analyzed by qRT-PCR. Cyclophilin was used for housekeeping gene (FIG. 18A). Inguinal fats were also lysed to detect the indicated protein level using immunoblot analysis (FIG. 18B). FIGS. 18C and 18D show mRNA and protein levels of indicated genes. Mice were treated and analyzed as (A-B) with addition of coinjection of […] control RGD peptide or cyclo RGDyK (cRGDyK). mRNA levels of indicated genes in inguinal fat were analyzed by qRT-PCR. Cyclophilin was used for house-keeping gene (FIG. 18C). Inguinal fats were also lysed to detect the indicated protein level using immunoblot analysis (FIG. 18D). […] Ucp1 mRNA level was analyzed by qRT-PCR. […]
Inguinal fat tissue from 6 weeks old mice was dissected and washed with PBS, minced and digested for 1 hour at 37° C. in PBS containing 10 mM CaCl2, 2.4 U/ml dispase II (Roche) and 10 mg/ml collagenase D (Roche). […] After that, cells were maintained in 1 μM rosiglitazone in the presence of 0, 0.5, 5 or 50 ng/ml recombinant […] his-tag irisin protein for 4 days with medium change every other day. mRNA levels were analyzed as described in gene expression analysis. […]

T1 sequence (P06756 31-889 limits assumed): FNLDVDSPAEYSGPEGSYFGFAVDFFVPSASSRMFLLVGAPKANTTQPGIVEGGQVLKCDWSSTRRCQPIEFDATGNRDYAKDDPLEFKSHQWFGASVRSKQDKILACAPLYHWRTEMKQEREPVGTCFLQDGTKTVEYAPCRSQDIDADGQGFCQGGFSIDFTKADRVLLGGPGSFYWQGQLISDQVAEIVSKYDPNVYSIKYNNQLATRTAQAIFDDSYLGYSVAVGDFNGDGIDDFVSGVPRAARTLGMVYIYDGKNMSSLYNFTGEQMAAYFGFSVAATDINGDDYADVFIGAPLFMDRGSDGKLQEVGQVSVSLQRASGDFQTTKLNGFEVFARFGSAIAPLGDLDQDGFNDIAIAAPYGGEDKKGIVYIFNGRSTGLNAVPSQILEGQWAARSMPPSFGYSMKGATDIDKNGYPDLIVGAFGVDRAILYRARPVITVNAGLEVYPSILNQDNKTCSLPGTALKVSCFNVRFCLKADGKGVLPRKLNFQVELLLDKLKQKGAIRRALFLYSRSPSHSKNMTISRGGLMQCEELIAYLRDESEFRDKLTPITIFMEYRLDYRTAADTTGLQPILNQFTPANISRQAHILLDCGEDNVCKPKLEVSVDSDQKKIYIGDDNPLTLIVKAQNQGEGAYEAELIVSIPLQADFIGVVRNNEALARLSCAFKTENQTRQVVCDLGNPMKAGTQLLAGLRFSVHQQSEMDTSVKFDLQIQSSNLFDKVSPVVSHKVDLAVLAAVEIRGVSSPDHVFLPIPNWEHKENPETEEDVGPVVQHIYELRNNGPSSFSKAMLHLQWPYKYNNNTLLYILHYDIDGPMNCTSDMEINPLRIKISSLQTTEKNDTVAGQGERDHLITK
T1 sequence (P06756 891-1048 partner limits assumed): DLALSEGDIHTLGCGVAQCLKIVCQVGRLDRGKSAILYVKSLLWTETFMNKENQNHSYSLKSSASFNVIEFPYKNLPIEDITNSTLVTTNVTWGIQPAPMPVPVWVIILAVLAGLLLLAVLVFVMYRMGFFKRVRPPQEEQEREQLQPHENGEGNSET
T1 sequence (P18084 24-799): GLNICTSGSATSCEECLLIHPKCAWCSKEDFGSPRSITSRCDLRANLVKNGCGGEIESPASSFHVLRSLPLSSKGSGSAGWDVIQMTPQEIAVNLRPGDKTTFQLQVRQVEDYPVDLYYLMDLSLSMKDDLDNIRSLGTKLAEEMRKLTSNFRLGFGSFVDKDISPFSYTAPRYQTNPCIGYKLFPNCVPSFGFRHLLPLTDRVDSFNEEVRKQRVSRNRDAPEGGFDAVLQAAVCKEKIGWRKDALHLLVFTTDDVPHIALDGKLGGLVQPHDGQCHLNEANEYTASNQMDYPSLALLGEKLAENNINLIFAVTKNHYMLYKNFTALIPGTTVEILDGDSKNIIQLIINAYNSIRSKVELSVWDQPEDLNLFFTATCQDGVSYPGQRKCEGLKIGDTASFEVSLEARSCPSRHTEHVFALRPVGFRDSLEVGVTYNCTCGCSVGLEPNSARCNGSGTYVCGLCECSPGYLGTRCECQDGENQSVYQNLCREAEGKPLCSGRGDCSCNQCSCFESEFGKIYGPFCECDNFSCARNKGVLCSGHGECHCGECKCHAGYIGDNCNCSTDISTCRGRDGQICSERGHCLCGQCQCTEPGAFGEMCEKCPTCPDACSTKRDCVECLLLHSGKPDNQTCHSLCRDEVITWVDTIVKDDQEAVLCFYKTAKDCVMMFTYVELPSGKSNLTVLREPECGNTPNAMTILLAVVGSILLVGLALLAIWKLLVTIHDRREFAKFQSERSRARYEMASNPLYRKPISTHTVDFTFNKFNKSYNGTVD

As for `N=C(N)NCCC[C@@H]1NC(=O)[C@H](CCCCN)NC(=O)[C@@H](Cc2ccc(O)cc2)NC(=O)[C@H](CC(=O)O)NC(=O)CNC1=O` [cyclo RGDyK], the “effect on irisin-induced phosphorylation of FAK” value at integrin αV/β5 (HEK293T integrin αV/β5, 10 nM cyclo RGDyK) is “prevented phosphorylation of FAK significantly”; on integrin αV/β5 (HEK293T integrin αV/β5, 100 nM cyclo RGDyK) it was “blocked the phosphorylation completely”. Also, the IC50 on integrin αV/β5 (HEK293T with forced expression of integrin αV/β5, in the presence of irisin, from immunoblot, read-out: IC50 for blocking irisin-integrin αV/β5 signaling (phosphorylation of FAK)) was 10 to 50 nM. In experiment [1], the “effect on irisin-induced gene expression (Ucp1)” value was “prevented irisin-induced gene expression”.
